{"source": "paper PMC3469757", "about": "(Journal of medicinal chemistry, 2012)", "key": {"male NMRI mice": {"tested_on": "male NMRI mice", "assay": "Capsaicin induced hypothermia in mice", "assay_type": "in vivo, mouse"}, "human TRPV1 [1]": {"target": "T1, human TRPV1 (Homo sapiens, UniProt Q8NER1)", "T1 sequence (Q8NER1 whole entry)": "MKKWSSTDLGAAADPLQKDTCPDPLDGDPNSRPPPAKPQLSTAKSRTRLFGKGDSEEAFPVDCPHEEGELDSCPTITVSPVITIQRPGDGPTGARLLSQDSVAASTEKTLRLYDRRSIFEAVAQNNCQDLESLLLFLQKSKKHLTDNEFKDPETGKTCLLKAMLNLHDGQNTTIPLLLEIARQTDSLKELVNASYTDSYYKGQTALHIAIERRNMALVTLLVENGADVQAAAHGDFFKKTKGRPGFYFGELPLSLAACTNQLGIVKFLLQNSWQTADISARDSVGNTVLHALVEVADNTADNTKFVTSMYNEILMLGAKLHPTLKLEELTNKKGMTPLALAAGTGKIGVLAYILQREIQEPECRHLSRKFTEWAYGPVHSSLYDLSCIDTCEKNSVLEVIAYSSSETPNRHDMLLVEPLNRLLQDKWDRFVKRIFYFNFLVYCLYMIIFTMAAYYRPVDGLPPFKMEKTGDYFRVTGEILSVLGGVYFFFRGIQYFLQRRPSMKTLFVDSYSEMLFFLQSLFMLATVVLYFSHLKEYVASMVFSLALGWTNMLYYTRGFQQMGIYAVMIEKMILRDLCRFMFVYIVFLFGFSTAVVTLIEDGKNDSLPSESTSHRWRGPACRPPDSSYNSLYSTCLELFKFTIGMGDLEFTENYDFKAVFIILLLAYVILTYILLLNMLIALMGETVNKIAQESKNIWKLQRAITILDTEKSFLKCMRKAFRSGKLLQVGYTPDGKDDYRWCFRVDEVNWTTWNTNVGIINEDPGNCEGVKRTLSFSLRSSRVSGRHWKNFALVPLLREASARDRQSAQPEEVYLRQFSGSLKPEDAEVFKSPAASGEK", "assay": "Capsaicin assay", "assay_type": "cell-based", "conditions": "for fold more potent than lead 3 for capsaicin antagonism: versus compound 3"}, "human TRPV1 [2]": {"target": "T1, human TRPV1", "assay": "pH assay", "assay_type": "cell-based", "conditions": "for IC50: read-out: IC50 [pH], activator pH 6.0 to 6.3"}, "TRPV1 knockout mice": {"tested_on": "TRPV1 knockout mice", "assay": "Body temperature in TRPV1 knock-out mice", "assay_type": "in vivo, mouse", "conditions": "1 mg/kg oral"}, "C57BL/6J wild type mice": {"tested_on": "C57BL/6J wild type mice", "assay": "Body temperature in wild type mice", "assay_type": "in vivo, mouse", "conditions": "1 mg/kg oral, 45 min and 60 min post administration"}, "[3]": {"tested_on": "CCI-induced cold allodynia in rats", "assay": "Rat Bennett model of neuropathic pain", "assay_type": "in vivo", "conditions": "po"}, "human TRPV1 [4]": {"target": "T1, human TRPV1", "assay": "[3H]resiniferatoxin binding", "conditions": "data not shown"}, "[5]": {"tested_on": "panel of 135 other receptors and enzymes (CEREP)", "assay": "Selectivity panel", "conditions": "10 µM"}, "[6]": {"conditions": "hTRPV1 in CHO cells, versus compound 2"}}}
{"compound": "COc1cc(CNC(=O)CCCC/C=C/C(C)C)ccc1O", "note": "[capsaicin, reference compound]", "values": [{"measurement": "body temperature after capsaicin injection", "setting": "male NMRI mice; 3 mg/kg intraperitoneal, 15 min post injection, from 37.1 ± 0.1 °C", "result": "34.0 ± 0.1", "unit": "°C"}]}
{"compound": "CC(C(=O)NCc1ccc(C(F)(F)F)nc1)c1ccc(NS(C)(=O)=O)c(F)c1", "note": "(stereo not shown) [Compound 12, 2-(3-Fluoro-4-(methylsulfonamido)phenyl)-N-((6-(trifluoromethyl)pyridin-3-yl)methyl)propanamide]", "values": [{"measurement": "hTRPV1 antagonism in words", "setting": "human TRPV1 [1]; hTRPV1 in CHO cells", "result": "weak antagonist"}, {"measurement": "IC50", "setting": "human TRPV1 [2]; hTRPV1 in CHO cells", "result": "> 10", "unit": "µM"}]}
{"compound": "CC(C(=O)NCc1ccc(C(F)(F)F)nc1N1CCS(=O)(=O)CC1)c1ccc(NS(C)(=O)=O)c(F)c1", "note": "(stereo not shown) [Compound 99, N-((2-(1,1-Dioxidothiomorpholino)-6-(trifluoromethyl)pyridin-3-yl)methyl)-2-(3-fluoro-4-(methylsulfonamido)phenyl)propanamide]", "values": [{"measurement": "hTRPV1 antagonism in words", "setting": "human TRPV1 [1]; hTRPV1 in CHO cells", "result": "only weak potency"}, {"measurement": "IC50", "setting": "human TRPV1 [2]; hTRPV1 in CHO cells", "result": "> 10", "unit": "µM"}]}
{"compound": "CC(C(=O)NCc1ccc(C(F)(F)F)nc1N1CCNCC1)c1ccc(NS(C)(=O)=O)c(F)c1", "note": "(stereo not shown) [Compound 81, 2-(3-Fluoro-4-(methylsulfonamido)phenyl)-N-((2-(piperazin-1-yl)-6-(trifluoromethyl)pyridin-3-yl)methyl)propanamide]", "values": [{"measurement": "hTRPV1 antagonism in words", "setting": "human TRPV1 [1]; hTRPV1 in CHO cells", "result": "weak antagonist"}, {"measurement": "IC50", "setting": "human TRPV1 [2]; hTRPV1 in CHO cells", "result": "> 10", "unit": "µM"}]}
{"compound": "CC(C(=O)NCc1ccc(C(F)(F)F)nc1N1CCOCC1)c1ccc(NS(C)(=O)=O)c(F)c1", "note": "(stereo not shown) [Compound 97, 2-(3-Fluoro-4-(methylsulfonamido)phenyl)-N-((2-morpholino-6-(trifluoromethyl)pyridin-3-yl)methyl)propanamide]", "values": [{"measurement": "fold more potent than parent 2 for capsaicin antagonism", "setting": "human TRPV1 [1]; [6]", "result": 15, "unit": "fold"}]}
{"compound": "CC1CCN(c2nc(C(F)(F)F)ccc2CNC(=O)[C@@H](C)c2ccc(NS(C)(=O)=O)c(F)c2)CC1", "note": "[Compound 49S, (S)-2-(3-Fluoro-4-(methylsulfonamido)phenyl)-N-((2-(4-methylpiperidin-1-yl)-6-(trifluoromethyl)pyridin-3-yl)methyl)propanamide]", "values": [{"measurement": "effect on capsaicin induced decrease of body temperature", "setting": "male NMRI mice; 0.3 mg/kg oral, 15 min before 3 mg/kg ip capsaicin", "result": "completely inhibited"}, {"measurement": "hyperthermic response", "setting": "TRPV1 knockout mice", "result": "completely absent"}, {"measurement": "body temperature increase", "setting": "C57BL/6J wild type mice", "result": "about 1.3 ± 0.1 °C"}, {"measurement": "fold more potent than 2 over all four TRPV1 activators", "setting": "human TRPV1 [1]; capsaicin, pH, heat (45°C) and NADA, versus compound 2", "result": "140–660 fold"}, {"measurement": "fold more potent than lead 3 for capsaicin antagonism", "setting": "human TRPV1 [1]; hTRPV1 in CHO cells", "result": "~20", "unit": "fold"}, {"measurement": "side effects like sedation or decreased locomotion", "setting": "[3]", "result": "not observed"}, {"measurement": "inhibition of [3H]resiniferatoxin binding to human TRPV1", "setting": "human TRPV1 [4]", "result": "inhibited"}, {"measurement": "number of targets not negative in selectivity panel", "setting": "[5]", "result": 7}, {"measurement": "number of targets with greater than 50% inhibition", "setting": "[5]", "result": 3}, {"measurement": "fold better than 2 for pH antagonism", "setting": "human TRPV1 [2]; [6]", "result": 200, "unit": "fold"}]}
{"compound": "CC(C(=O)NCc1ccc(C(F)(F)F)nc1N(C)c1ccccc1)c1ccc(NS(C)(=O)=O)c(F)c1", "note": "(stereo not shown) [Compound 32, 2-(3-Fluoro-4-(methylsulfonamido)phenyl)-N-((2-(methyl(phenyl)amino)-6-(trifluoromethyl)pyridin-3-yl)methyl)propanamide]", "values": [{"measurement": "fold increase in potency for CAP compared to phenylamino analogue 17", "setting": "human TRPV1 [1]; versus compound 17", "result": 75, "unit": "fold"}, {"measurement": "fold increase in potency for pH compared to phenylamino analogue 17", "setting": "human TRPV1 [2]; versus compound 17", "result": 25, "unit": "fold"}]}
{"compound": "CC(C(=O)NCc1ccc(C(F)(F)F)nc1Nc1ccc(Cl)cc1)c1ccc(NS(C)(=O)=O)c(F)c1", "note": "(stereo not shown) [Compound 19, N-((2-((4-Chlorophenyl)amino)-6-(trifluoromethyl)pyridin-3-yl)methyl)-2-(3-fluoro-4-(methylsulfonamido)phenyl)propanamide]", "values": [{"measurement": "hTRPV1 antagonism in words", "setting": "human TRPV1 [1]; hTRPV1 in CHO cells", "result": "devoid of activity"}]}
{"compound": "C[C@H](C(=O)NCc1ccc(C(F)(F)F)nc1N1CCCCC1)c1ccc(NS(C)(=O)=O)c(F)c1", "note": "[Compound 45S, (S)-2-(3-Fluoro-4-(methylsulfonamido)phenyl)-N-((2-(piperidin-1-yl)-6-(trifluoromethyl)pyridin-3-yl)methyl)propanamide]", "values": [{"measurement": "fold more potent than lead 3 for capsaicin antagonism", "setting": "human TRPV1 [1]; hTRPV1 in CHO cells", "result": "ca. 15 fold"}]}
